Key:
MPan-96 cells = test: MPanc-96 cell invasiveness; format: cell-based, human
[1] = test system: NFκB activity in MPanc-96 cells; test: S100P stimulated NFκB luciferase reporter, MPanc-96; format: cell-based, human; conditions: S100P 100 nM, compound 1 μM, 5 hours
Description: MPanc-96 pancreatic cancer cell lines stably expressing an NFκB luciferase reporter were examined for the effects of S100P, cromolyn and C5. Cells were plated at 5.0×10^3 cells/well, treated for 5 hours with 100 nM of S100P, with or without cromolyn and C5 (1 μM), and activity of a luciferase gene driven by the NFkB promoter was analyzed. P=0.05 C5 versus cromolyn. Two-tailed two-sample (unpaired) Student's t-tests were used to determine P values.

[2] = test system: NFκB promoter activity in BxPC-3 cells; test: Luciferase assay for NFκB activity, BxPC-3; format: cell-based; conditions: for basal NFκB activity in BxPC-3 cells, mean: 5 hours, 0 μM mean=1.4×10^6
[3] = test system: NFκB activity of BxPC-3 cells transplanted orthotopically; test: NFκB promoter activity in vivo, orthotopic BxPC-3 tumors; set-up: species or system mice
Description: FIGS. 3A, 3B, and 3C show the effect of cromolyn on S100P stimulated NFκB promoter activity in pancreatic cancer cells in vitro and in vivo. Panc-1 and BxPC-3 pancreatic cancer cell lines stably expressing an NFκB luciferase reporter were examined for the effects of S100P and cromolyn. […] Means and 95% confidence intervals are shown for three independent experiments performed in triplicate. *, P=0.022, †, P<0.001, and ‡, P<0.001 versus control; #, P=0.005 versus 100 nM S100P alone. […] Means and 95% confidence intervals are shown for three independent experiments performed in triplicate. *, P=0.003, †, P<0.001 versus control. […] After 1 week, tumor growth was assessed and NFκB activity was analyzed using an IVIS system (Xenogen Corp., Alameda, Calif.) after injecting mice with D-luciferin (150 mg per kg body weight) (0 time point). The mice were treated with cromolyn (5 mg per kg body weight by intraperitoneal injection), and NFκB luciferase activity was analyzed again at 24 and 48 hours. *, P=0.005 versus control. Means and 95% confidence intervals are shown for two independent experiments (n=4 mice per group). Two-tailed two-sample (unpaired for in vitro and paired for in vivo studies) Student's t-tests were used to determine P values.
To measure NFκB promoter activity in vivo, BxPC-3 cells (50,000/50 μL) stably expressing a Lenti-NFkB-luc reporter were transplanted orthotopically into the pancreas of 4-week-old male CB 17 scid mice (n=4 mice per experiment). After 1 week mice were injected with D-luciferin (150 mg per kg body weight, i.p.), and basal NFκB activity was determined using the IVIS system. Subsequently, mice were injected with cromolyn (5 mg per kg body weight, i.p.), and NFκB luciferase activity was re-analyzed after 24 and 48 hours. These experiments were performed three times.

MPanc-96 cells = test: MPanc-96 cell apoptosis by flow cytometry, 72 hours; format: cell-based, human; conditions: 100 and 1000 nM, with or without gemcitabine 10 μM
Description: FIG. 11 compares the effects of cromolyn and C5 alone and in combination with gemcitabine on MPanc-96 cell apoptosis. MPanc-96 cells were treated with cromolyn or C5 (100 and 1000 nM) with (+) or without (−) gemcitabine (10 μM). Apoptosis was analyzed after 72 hours by flow cytometry.

PC3 prostate cells = test: PC3 prostate cell viability with taxol; format: cell-based; conditions: taxol 100 nM, cromolyn 10 μM, 48 hours
Description: PC3 prostate cells were plated and treated with taxol (100 nM) either in the presence or absence of cromolyn (10 μM) for 48 hours. Cell viability was analyzed after 48 hours. *, P<0.05.

Panc-1 cells = test: Panc-1 cell growth (MTS); format: cell-based
Description: Panc-1 pancreatic adenocarcinoma cells (1.0×10^3 cells/well) were cultured in the presence or absence of S100P (100 nM) and with or without cromolyn (100 μM), and cell proliferation was analyzed at 24, 48, and 72 hours. Means and 95% confidence intervals of three independent experiments performed in triplicate are shown. *, P=0.001, S100P alone versus S100P+cromolyn.
Panc-1 cells were plated at 1.0×10^3 cells/well and treated with platelet-derived growth factor (10 ng/mL) with or without cromolyn (100 μM), and cell proliferation was analyzed after 48 hours. Means and 95% confidence intervals of three independent experiments performed in triplicate are shown. *, P=0.004 PDGF and P=0.022 cromolyn+PDGF versus control.
Growth of Panc-1 and BxPC3 pancreatic adenocarcinoma cells was analyzed using MTS reagent (Promega, Madison, Wis.) according to the manufacturer's directions. Purified S100P (100 nM final concentration) with or without cromolyn (100 μM final concentration) was added to Panc-1 cells. Only cromolyn (0-100 μM) was added to BxPC-3 cells, which express endogenous S100P. For both cell models, 1.0×10^3 cells/well were plated in 96-well culture dishes. Cells were treated with S100P, PDGF, or cromolyn, or a combination, followed immediately by treatment with either S100P or PDGF. MTS (20 μL per well) was added to cells at various times, and the mixture was incubated for 1 hour at 37° C. Samples were then read at 490 nm (as O.D. units) on a uQuant-Microplate Spectrophotometer (Bio-Tek Services Inc., Richmond, Va.). The assay was performed three times in triplicate.

Q: How did the “MPanc-96 basal cell invasiveness” value (MPan-96 cells) turn out when `O=C(O)c1cc(=O)c2c(OCC(O)COc3cccc4oc(C(=O)O)cc(=O)c34)cccc2o1` [cromolyn, disodium 1,3-bis[(2′-carboxylatochromon-5′-yl)oxy]-2-hydroxypropane] was run?
A: inhibited basal cell invasiveness

Q: And the “NFκB activity in pancreatic cancer cells in vitro” value [1]?
A: inhibit NFκB activity

Q: What about the “basal NFκB activity in BxPC-3 cells, difference versus 0 μM” value ([2]; cromolyn 10 μM) of the same compound?
A: 4.7×10^5 photons/sec

Q: What about the “basal NFκB activity in BxPC-3 cells, mean” value ([2]; cromolyn 10 μM) of the same compound?
A: 9.4×10^5 photons/sec

Q: And the “basal NFκB activity in BxPC-3 cells, difference versus 0 μM” value ([2]; cromolyn 100 μM)?
A: 5.9×10^5 photons/sec

Q: And the “basal NFκB activity in BxPC-3 cells, mean” value ([2]; cromolyn 100 μM)?
A: 8.2×10^5 photons/sec

Q: And the “NFκB luciferase activity in vivo, mean” value ([3]; 24 h after single dose 5 mg per kg i.p., 0 h mean=9.9×10^6)?
A: 1.3×10^6 photons/sec

Q: And the “reduction of basal NFκB activity in vivo” value ([3]; 24 hours after single dose 5 mg per kg i.p.)?
A: at least 80%

Q: And the “NFκB activity in vivo at 48 hours” value ([3]; 48 hours after single dose 5 mg per kg i.p.)?
A: returned to control levels

Q: And the “NFκB luciferase activity in vivo, difference 0 h versus 24 h” value ([3]; single dose 5 mg per kg i.p.)?
A: 8.6×10^6 photons/sec

Q: What about the MPanc-96 cell viability (MPanc-96 cells) of the same compound?
A: inhibit MPanc-96 cell viability

Q: And the “cell killing effect of taxol on prostate cancer cells” value (PC3 prostate cells)?
A: increased the cell killing effect of taxol

Q: And the “serum stimulated Panc-1 cell proliferation” value (Panc-1 cells)?
A: did not influence

Q: And the “PDGF-stimulated Panc-1 growth in presence of cromolyn” value (Panc-1 cells; PDGF 10 ng/mL, cromolyn 100 μM, 48 hours)?
A: nor did it inhibit growth stimulation caused by PDGF

Q: What about the “Panc-1 cell proliferation, mean” value (Panc-1 cells; S100P 100 nM + cromolyn 100 μM) of the same compound?
A: 0.56 MTS units

Q: What about the “Panc-1 cell proliferation, difference S100P versus S100P+cromolyn” value (Panc-1 cells; S100P 100 nM, cromolyn 100 μM) of the same compound?
A: 0.37 MTS units

Q: And the “effects of exogenous S100P treatment on Panc-1 proliferation” value (Panc-1 cells; S100P 100 nM, cromolyn 100 μM)?
A: completely blocked

Q: What about the “Panc-1 cell proliferation, cromolyn treatment alone” value (Panc-1 cells; no S100P) of the same compound?
A: no effect
